In ChEMBL document CHEMBL6083193, “Advancing drug discovery: Thiadiazole derivatives as multifaceted agents in medicinal chemistry and pharmacology” (Bioorg Med Chem, 2024):
Values after ≈ are worked out from the molar mass of the structure shown. Values belong to the compound of their own block, whether it stands above or below them.

Key:
Mus musculus = test: Antiinflammatory activity against carrageenan-induced paw edema in Swiss mouse assessed as reduction in paw edema at 15 mg/kg, po relative to control; type: functional; set-up: scale not given: the % may be the effect or the level left
Toxoplasma gondii = test: Antiparasitic activity against Toxoplasma gondii RH infected in human HFF cells; type: functional, organism-based
[1] = Inhibition of Alpha-amylase (unknown origin); set-up: species or system Homo sapiens
Alpha glucosidase = Alpha glucosidase (Homo sapiens, UniProt O43451+P10253+P14410+Q2M2H8); test: Inhibition of Alpha-glucosidase (unknown origin); type: protein assay
A549 [2] = test: Anticancer activity against human A549 cells by MTT assay; type: functional, cell-based
MCF7 [3] = test: Cytotoxicity against human MCF7 cells assessed as reduction in cell viability by MTT assay; type: functional, cell-based
COLO 205 [4] = test: Cytotoxicity against human COLO 205 cells assessed as reduction in cell viability by MTT assay; type: functional, cell-based
COLO 205 [5] = test: Anticancer activity against human COLO 205 cells by MTT assay; type: functional, cell-based
MCF7 [6] = test: Anticancer activity against human MCF7 cells by MTT assay; type: functional, cell-based
A549 [7] = test: Cytotoxicity against human A549 cells assessed as reduction in cell viability by MTT assay; type: functional, cell-based
A2780 [8] = test: Anticancer activity against human A2780 cells by MTT assay; type: functional, cell-based
A2780 [9] = test: Cytotoxicity against human A2780 cells assessed as reduction in cell viability by MTT assay; type: functional, cell-based
A549 [10] = test: Cytotoxicity against human A549 cells assessed as reduction in cell growth; type: functional, cell-based
[11] = Inhibition of alpha amylase (unknown origin) using starch as substrate pre-incubated for 30 mins followed by substrate addition and measured after 30 mins by absorbance based analysis; set-up: species or system Homo sapiens
[12] = Antioxidant activity assessed as DPPH radical scavenging activity measured for 30 mins by spectrophotometric analysis; type: functional

SMILES: O=C1N/C(=N\c2nnc(C34CC5CC(CC(C5)C3)C4)s2)S/C1=C\c1c(F)cccc1F
- Activity (Mus musculus): 66.7%

SMILES: Cc1nc[nH]c1-c1nnc(Nc2ccc(I)cc2)s1
- IC50 (Toxoplasma gondii): 4.7 µg/mL (≈ 12.3 µM)

SMILES: Cc1nc[nH]c1-c1nnc(Nc2ccc(Br)cc2)s1
- IC50 (Toxoplasma gondii): 4.7 µg/mL (≈ 14 µM)

- IC50 [1]: 2590 nM
- IC50 (Alpha glucosidase): < 500000 nM
SMILES: Cc1cccc(CN2C(=O)/C(=N\Nc3nncs3)c3ccccc32)c1

SMILES: Cc1nc[nH]c1-c1nnc(Nc2cccc(Cl)c2)s1
- IC50 (Toxoplasma gondii): 4.7 µg/mL (≈ 16.1 µM)

- IC50 (A549 [2]): 110 nM
- IC50 (COLO 205 [5]): 110 nM
- IC50 (MCF7 [6]): 110 nM
- IC50 (A2780 [8]): 110 nM
SMILES: COc1ccc(NC(=O)c2ccc(-c3nsc(-c4csc(-c5ccncc5)n4)n3)cc2)cc1
- IC50 (MCF7 [3]): 340 nM
- IC50 (COLO 205 [4]): 120 nM
- IC50 (A549 [7]): 110 nM
- IC50 (A2780 [9]): 140 nM

- IC50 (A549 [2]): 110 nM
- IC50 (COLO 205 [5]): 110 nM
- IC50 (MCF7 [6]): 110 nM
- IC50 (A2780 [8]): 110 nM
SMILES: O=C(Nc1ccc(Cl)cc1)c1ccc(-c2nsc(-c3csc(-c4ccncc4)n3)n2)cc1

SMILES: CCCCNc1nnc(SCC(=O)N2N=C(c3ccccc3)CC2c2ccc([N+](=O)[O-])cc2)s1 (configuration not stated)
- IC50 (A549 [10]): 10000 nM

- IC50 [1]: 1300 nM
- IC50 (Alpha glucosidase): 2200 nM
SMILES: O=[N+]([O-])c1cccc(NC(=S)Nc2nsc(Nc3ccc(F)cc3)n2)c1

- IC50 (A549 [2]): 110 nM
- IC50 (COLO 205 [5]): 110 nM
- IC50 (MCF7 [6]): 110 nM
- IC50 (A2780 [8]): 110 nM
SMILES: O=C(Nc1ccc([N+](=O)[O-])cc1)c1ccc(-c2nsc(-c3csc(-c4ccncc4)n3)n2)cc1

SMILES: Cc1ccc(Nc2nnc(SCC(=O)N3N=C(c4ccccc4)CC3c3ccc([N+](=O)[O-])cc3)s2)cc1 (configuration not stated)
- IC50 (A549 [10]): 10000 nM

SMILES: Cc1nc[nH]c1-c1nnc(Nc2cccc(F)c2)s1
- IC50 (Toxoplasma gondii): 4.7 µg/mL (≈ 17.1 µM)

SMILES: O=C1N/C(=N\c2nnc(C34CC5CC(CC(C5)C3)C4)s2)S/C1=C\c1cccc([N+](=O)[O-])c1
- Activity (Mus musculus): 66.7%

- IC50 (A549 [2]): 110 nM
- IC50 (COLO 205 [5]): 110 nM
- IC50 (MCF7 [6]): 110 nM
- IC50 (A2780 [8]): 110 nM
SMILES: N#Cc1ccc(NC(=O)c2ccc(-c3nsc(-c4csc(-c5ccncc5)n4)n3)cc2)cc1

- IC50 [1]: 1300 nM
- IC50 (Alpha glucosidase): 2200 nM
SMILES: O=[N+]([O-])c1ccc(NC(=S)Nc2nsc(Nc3cccc([N+](=O)[O-])c3)n2)cc1

- IC50 [1]: 1300 nM
- IC50 (Alpha glucosidase): 2200 nM
SMILES: FC(F)(F)c1cccc(Nc2nc(NC(=S)Nc3ccc(Cl)cc3)ns2)c1

- IC50 (A549 [2]): 110 nM
- IC50 (COLO 205 [5]): 110 nM
- IC50 (MCF7 [6]): 110 nM
- IC50 (A2780 [8]): 110 nM
SMILES: O=C(Nc1ccc(Br)cc1)c1ccc(-c2nsc(-c3csc(-c4ccncc4)n3)n2)cc1

SMILES: O=C1N/C(=N\c2nnc(C34CC5CC(CC(C5)C3)C4)s2)S/C1=C\c1cccc(F)c1F
- Activity (Mus musculus): 66.7%

- IC50 (A549 [2]): 110 nM
- IC50 (COLO 205 [5]): 110 nM
- IC50 (MCF7 [6]): 110 nM
- IC50 (A2780 [8]): 110 nM
SMILES: O=C(Nc1cc([N+](=O)[O-])cc([N+](=O)[O-])c1)c1ccc(-c2nsc(-c3csc(-c4ccncc4)n3)n2)cc1

SMILES: COc1ccc(Nc2nnc(SCC(=O)N3N=C(c4ccccc4)CC3c3ccc([N+](=O)[O-])cc3)s2)cc1 (configuration not stated)
- IC50 (A549 [10]): 10000 nM

SMILES: CN(C)c1ccc(/C=C2\S/C(=N/c3nnc(C45CC6CC(CC(C6)C4)C5)s3)NC2=O)cc1
- Activity (Mus musculus): 66.7%

- IC50 [11]: 36100 nM
SMILES: O=C(CCl)Nc1nnc(NC(=O)c2cccs2)s1

- IC50 (Alpha glucosidase): < 500000 nM
SMILES: CSc1ccc(C2SCC(=O)N2c2nnc(-c3ccccc3)s2)cc1 (configuration not stated)

- IC50 [12]: 39.27 µg/mL (≈ 137 µM)
SMILES: Nc1nn(-c2ccccc2)nc1C(=O)Nc1nncs1

- IC50 [1]: 1300 nM
- IC50 (Alpha glucosidase): 2200 nM
SMILES: Cc1ccc(NC(=S)Nc2nsc(Nc3ccc(Cl)cc3)n2)cc1

- IC50 (A549 [2]): 110 nM
- IC50 (COLO 205 [5]): 110 nM
- IC50 (MCF7 [6]): 110 nM
- IC50 (A2780 [8]): 110 nM
SMILES: COc1cc(NC(=O)c2ccc(-c3nsc(-c4csc(-c5ccncc5)n4)n3)cc2)cc(OC)c1
- IC50 (MCF7 [3]): 340 nM
- IC50 (COLO 205 [4]): 120 nM
- IC50 (A549 [7]): 110 nM
- IC50 (A2780 [9]): 140 nM

- IC50 (A549 [2]): 110 nM
- IC50 (COLO 205 [5]): 110 nM
- IC50 (MCF7 [6]): 110 nM
- IC50 (A2780 [8]): 110 nM
SMILES: Cc1ccc(NC(=O)c2ccc(-c3nsc(-c4csc(-c5ccncc5)n4)n3)cc2)cc1
- IC50 (MCF7 [3]): 340 nM
- IC50 (COLO 205 [4]): 120 nM
- IC50 (A549 [7]): 110 nM
- IC50 (A2780 [9]): 140 nM

- IC50 [1]: 1300 nM
- IC50 (Alpha glucosidase): 2200 nM
SMILES: COc1ccccc1NC(=S)Nc1nsc(Nc2ccc(Cl)c(Cl)c2)n1

- IC50 [1]: 1300 nM
- IC50 (Alpha glucosidase): 2200 nM
SMILES: COc1cccc(NC(=S)Nc2nsc(Nc3ccc(Cl)c(Cl)c3)n2)c1

SMILES: O=C(CSc1nnc(NC2CCCCC2)s1)N1N=C(c2ccccc2)CC1c1ccc([N+](=O)[O-])cc1 (configuration not stated)
- IC50 (A549 [10]): 10000 nM

- IC50 [1]: 1300 nM
- IC50 (Alpha glucosidase): 2200 nM
SMILES: FC(F)(F)c1cccc(Nc2nc(NC(=S)Nc3ccccc3)ns2)c1

SMILES: O=C1N/C(=N\c2nnc(C34CC5CC(CC(C5)C3)C4)s2)S/C1=C\c1ccc(Cl)cc1Cl
- Activity (Mus musculus): 66.7%

- IC50 [1]: 3870 nM
- IC50 (Alpha glucosidase): < 500000 nM
SMILES: CCc1ccc(C2SCC(=O)N2c2nnc(-c3ccccc3)s2)cc1 (configuration not stated)

SMILES: COc1cccc(/C=C2\S/C(=N/c3nnc(C45CC6CC(CC(C6)C4)C5)s3)NC2=O)c1
- Activity (Mus musculus): 66.7%

SMILES: O=C1N/C(=N\c2nnc(C34CC5CC(CC(C5)C3)C4)s2)S/C1=C\c1ccc([N+](=O)[O-])cc1
- Activity (Mus musculus): 66.7%

SMILES: O=C1N/C(=N\c2nnc(C34CC5CC(CC(C5)C3)C4)s2)S/C1=C\c1ccc(Br)cc1
- Activity (Mus musculus): 66.7%

SMILES: Cc1nc[nH]c1-c1nnc(Nc2ccccc2Br)s1
- IC50 (Toxoplasma gondii): 4.7 µg/mL (≈ 14 µM)
